# Measurements reported in patent publication US20250108038A1 (priority 2023, published 2025).
# “And” between values parts separate entries of the source, which are not always exact repeats. Equal values may be shown once. “Also recorded” adds a separate entry of the source. Read-outs that look alike come from different tables or passages of the source.
# Legend:
# [1] = Stability of test articles at different pH values (SGF, SIF, PBS); assay type: physicochemical; conditions: 0.1 mM, 37° C., 0-120 min
# Experimental: FIG. 1A. […] (final concentration 0.1 mM) and the mixture was incubated at 37° C. for 120 min. total. […] Values represent mean+SEM of n=3 separate experiments.
# FIG. 1B. Stability of Compound I-4 in 3 different fluid matrices modeling 3 different body fluids: SGF (gastric, pH 2.0), SIF (upper intestinal, pH 6.0), and PBS (systemic fluid, pH 7.4). […] (final concentration 0.1 mM) and the mixture was incubated at 37° C. for 120 min. total. […] Values represent mean+SEM of n=3 separate experiments.
# 10 mM stock solutions of test articles were prepared in DMSO. From this stock solution, a single concentration in a 10 μL aliquot was added to three fluid matrices: SGF at pH 2.0 (gastric), SIF at pH 6.0 (upper intestine), and PBS at pH 7.4 (systemic fluid). The final volume was 1 mL (0.1 mM).
# LC-MS/MS analysis of test articles was performed on a Waters Acquity UPLC system in-line with a Waters TQ-S triple quadrupole mass spectrometer via an electrospray interface.
# UPLC separation of samples was performed on a Waters BEH Phenyl 2.1×50 column at 40 C. Mobile phase was 0.1% formic acid in water for mobile phase A and 0.1% formic acid in acetonitrile as mobile phase B. Gradient elution was 1% B initial, 65% B to 95% B at 2 minutes, 95% B at 4 minutes, and 1% B at 4.1 minutes. Flow rate was 0.4 mL/min and 5 μL of samples was injected.
# [2] = Experimental: Twelve male Wistar Han rats were divided into 4 groups, n=3 per group.
# Dose solutions were prepared freshly on the day of study prior to dosing.
# The animals were weighed immediately prior to dosing and the dose volume was calculated individually based the obtained body weight and the nominal dose volume. […] The test articles were administered either orally by gavage, or intraperitoneally by injection. The nominal dose volume was 10 mL/kg for both compounds and both routes.
# Cage side observation was performed before and after dosing as well as at each scheduled sample collection. The observation included appearance, posture, behavior, morbidity and mortality. Abnormal findings, if any, were recorded in the study notebook and communicated with study director, veterinarian, and Supernus if necessary.
# Approximately 100 μL blood was collected at each scheduled time point from jugular veins. The actual sample collection time was within 1 min. of the nominal time for collections prior to or at 1 hour, and within 5% of the nominal time for collections post 1 hour.
# The blood samples were placed in pre-labeled micro-centrifuge tubes containing K2EDTA as anticoagulant and kept on ice, and then were processed to plasma within 30 minutes of collection by centrifugation at 4° C., 3000 g for 5 minutes, and then stored at −70±10° C. until analysis by LC-MS/MS.
# Plasma concentrations below the LLOQ prior to Tmax were set to zero, and those after Tmax were excluded from PK calculation. The nominal dose and the nominal sample collection time were used for the calculation. The values of plasma concentrations and PK parameters are reported to three significant figures. The average values of each treatment group are presented as mean±SD.
# [3] = single IP Compound I-4 3.708 mg/kg, male Wistar Han rats, individual animals
# [4] = single IP Compound I-4 3.708 mg/kg, male Wistar Han rats, mean
# [5] = single PO Compound I-4 3.708 mg/kg, male Wistar Han rats, individual animals
# [6] = single PO Compound I-4 3.708 mg/kg, male Wistar Han rats, mean
structure (smiles),measurement,setting,value
COCCOC1(c2ccc(Cl)cc2)c2ccccc2C2=NCCN21 (centres unmarked) [Compound I-4],Stability (% parent compound remaining),"[1]; PBS (systemic fluid, pH 7.4)",no significant change in the amount of parent compound; also recorded: stable in all three fluid matrices
same,Stability (% parent compound remaining),"[1]; SGF (gastric, pH 2.0)",no significant change in the amount of parent compound; also recorded: stable in all three fluid matrices
same,Stability (% parent compound remaining),"[1]; SIF (upper intestinal, pH 6.0)",no significant change in the amount of parent compound; also recorded: stable in all three fluid matrices
same,Compound A formed (Aa/Ai),in vitro; 0 min,0.55
same,% Remaining,"in vitro; 2.0 μM, 0 min",100%
same,Aa/Ai Mean (N = 2),"in vitro; 2.0 μM, 0 min",3.23
same,% Remaining,"in vitro; 2.0 μM, 5 min",105%
same,Aa/Ai Mean (N = 2),"in vitro; 2.0 μM, 5 min",3.39
same,% Remaining,"in vitro; 2.0 μM, 15 min",107%
same,Aa/Ai Mean (N = 2),"in vitro; 2.0 μM, 15 min",3.46
same,% Remaining,"in vitro; 2.0 μM, 30 min",101%
same,Aa/Ai Mean (N = 2),"in vitro; 2.0 μM, 30 min",3.27
same,% Remaining,"in vitro; 2.0 μM, 60 min",92.6%
same,Aa/Ai Mean (N = 2),"in vitro; 2.0 μM, 60 min",2.99
same,T1/2,"in vitro; 2.0 μM, 60 min incubation",>3.12 h
same,Compound A formed (Aa/Ai),in vitro; 5 min,0.61
same,Compound A formed (Aa/Ai),in vitro; 15 min,0.60
same,Compound A formed (Aa/Ai),in vitro; 30 min,0.53
same,Compound A formed (Aa/Ai),in vitro; 60 min,0.42
same,plasma concentration of Compound I-4,"[2]; 0.500 h, single IP Compound I-4 3.708 mg/kg, male Wistar Han rats, individual animals",90.3 ng/mL and 48.4 ng/mL and 115 ng/mL
same,plasma concentration of Compound I-4,"[2]; 0.500 h, single IP Compound I-4 3.708 mg/kg, male Wistar Han rats, mean",84.6 ng/mL
same,plasma concentration of Compound I-4,"[2]; 0.500 h, single PO Compound I-4 3.708 mg/kg, male Wistar Han rats, mean",9.01 ng/mL
same,plasma concentration of Compound I-4,"[2]; 2.00 h, single IP Compound I-4 3.708 mg/kg, male Wistar Han rats, individual animals",96.7 ng/mL and 85.7 ng/mL and 119 ng/mL
same,plasma concentration of Compound I-4,"[2]; 2.00 h, single IP Compound I-4 3.708 mg/kg, male Wistar Han rats, mean",100 ng/mL
same,plasma concentration of Compound I-4,"[2]; 2.00 h, single PO Compound I-4 3.708 mg/kg, male Wistar Han rats, mean",6.06 ng/mL
same,plasma concentration of Compound I-4,"[2]; 4.00 h, single IP Compound I-4 3.708 mg/kg, male Wistar Han rats, individual animals",54.6 ng/mL and 98.6 ng/mL and 61.1 ng/mL
same,plasma concentration of Compound I-4,"[2]; 4.00 h, single IP Compound I-4 3.708 mg/kg, male Wistar Han rats, mean",71.4 ng/mL
same,plasma concentration of Compound I-4,"[2]; 4.00 h, single PO Compound I-4 3.708 mg/kg, male Wistar Han rats, mean",2.75 ng/mL
same,plasma concentration of Compound I-4,"[2]; 8.00 h, single IP Compound I-4 3.708 mg/kg, male Wistar Han rats, mean",31.7 ng/mL
same,plasma concentration of Compound I-4,"[2]; 8.00 h, single PO Compound I-4 3.708 mg/kg, male Wistar Han rats, individual animals",1.40 ng/mL and 1.11 ng/mL and 1.53 ng/mL
same,plasma concentration of Compound I-4,"[2]; 8.00 h, single PO Compound I-4 3.708 mg/kg, male Wistar Han rats, mean",1.35 ng/mL
same,plasma concentration of Compound I-4,"[2]; 24.0 h, single IP Compound I-4 3.708 mg/kg, male Wistar Han rats, individual animals",BQL
same,plasma concentration of Compound I-4,"[2]; 24.0 h, single PO Compound I-4 3.708 mg/kg, male Wistar Han rats, individual animals",BQL
same,plasma concentration of Compound I-4,"[2]; […] h, single IP Compound I-4 3.708 mg/kg, male Wistar Han rats, mean",95.5 ng/mL
same,plasma concentration of Compound I-4,"[2]; […] h, single PO Compound I-4 3.708 mg/kg, male Wistar Han rats, mean",6.98 ng/mL
same,Clinical observation (tolerability),"[2]; male Wistar Han rats, PO and IP, administered dosages",well tolerated
same,T1/2 of the administered compound,"[2]; rat, in vivo, ip",2.51 h
same,AUC0-inf of Compound I-4,[2]; [3],567 ng·h/mL and 597 ng·h/mL
same,AUC0-last of Compound I-4,[2]; [3],473 ng·h/mL and 599 ng·h/mL and 546 ng·h/mL
same,Cmax of Compound I-4,[2]; [3],120 ng/mL and 98.6 ng/mL and 140 ng/mL
same,MRT0-inf of Compound I-4,[2]; [3],4.58 h and 3.48 h
same,MRT0-last of Compound I-4,[2]; [3],3.06 h and 4.10 h and 2.77 h
same,T1/2 of Compound I-4,[2]; [3],2.90 h and 2.12 h
same,Tlast of Compound I-4,[2]; [3],8.00 h
same,AUC0-inf of Compound I-4,[2]; [4],582 ng·h/mL
same,AUC0-last of Compound I-4,[2]; [4],539 ng·h/mL
same,Cmax of Compound I-4,[2]; [4],120 ng/mL
same,MRT0-inf of Compound I-4,[2]; [4],4.03 h
same,MRT0-last of Compound I-4,[2]; [4],3.31 h
same,T1/2 of Compound I-4,[2]; [4],2.51 h
same,Tlast of Compound I-4,[2]; [4],8.00 h
same,Tmax of Compound I-4,[2]; [4],1.50 h
same,AUC0-inf of Compound I-4,[2]; [5],56.4 ng·h/mL
same,MRT0-inf of Compound I-4,[2]; [5],2.61 h
same,MRT0-last of Compound I-4,[2]; [5],3.86 h and 2.20 h and 4.46 h
same,T1/2 of Compound I-4,[2]; [5],1.74 h
same,Tlast of Compound I-4,[2]; [5],8.00 h
same,AUC0-last of Compound I-4,[2]; [6],25.2 ng·h/mL
same,Cmax of Compound I-4,[2]; [6],9.18 ng/mL
same,MRT0-last of Compound I-4,[2]; [6],3.51 h
same,Tlast of Compound I-4,[2]; [6],8.00 h
same,Tmax of Compound I-4,[2]; [6],1.67 h
